Results published in patent US10287291B2, “Seco-cyclopropapyrroloindole compounds, antibody-drug conjugates thereof, and methods of making and use” (priority 2016, dated 2019).
Read-outs that look alike come from different tables or passages of the source.

Columns and labels:
[1] = system: N87 (human gastric (stomach) cancer cell line); assay: 72 hr ATP luminescence proliferation inhibition, N87; format: cell-based; details: read-out: Proliferation Inhibition of Cancer Cells EC50, N87
Protocol: (§1) Proliferation inhibition was measured using a 72 hr ATP luminescence assay (Cheng et al., U.S. Pat. No. 8,394,922 B2 (2013)).
(§2) Proliferation inhibition was measured against: (a) H226 (human mesothelioma (lung) cancer cell line); (b) N87 (human gastric (stomach) cancer cell line); (c) OVCAR3 (human ovarian cancer cell line); (d) HCT116 (human colon cancer cell line); and (e) HCT116/VM46 (multidrug and paclitaxel resistant subline of HCT116).

[2] = system: H226 (human mesothelioma (lung) cancer cell line); assay: 72 hr ATP luminescence proliferation inhibition, H226; format: cell-based
Protocol: as §1, §2

[3] = system: OVCAR3 (human ovarian cancer cell line); assay: 72 hr ATP luminescence proliferation inhibition, OVCAR3; format: cell-based
Protocol: as §1, §2

[4] = system: HCT116/VM46 (multidrug and paclitaxel resistant subline of HCT116); assay: 72 hr ATP luminescence proliferation inhibition, HCT116/VM46; format: cell-based, human; details: read-out: Proliferation Inhibition of Cancer Cells EC50, HCT116/VM46
Protocol: as §1, §2

[5] = system: HCT116 (human colon cancer cell line); assay: 72 hr ATP luminescence proliferation inhibition, HCT116; format: cell-based
Protocol: as §1, §2

[6] = Homo sapiens, NCI-H226, read-out: Proliferation Inhibition of Cancer Cells EC50, H226
[7] = Homo sapiens, OVCAR-3, read-out: Proliferation Inhibition of Cancer Cells EC50, OVCAR3
[8] = Homo sapiens, HCT-116/VM46, HCT116/VM46 cell line
[9] = Homo sapiens, HCT-116, read-out: Proliferation Inhibition of Cancer Cells EC50, HCT116
[10] = read-out: Proliferation Inhibition of Cancer Cells EC50, OVCAR3
[11] = read-out: Proliferation Inhibition of Cancer Cells EC50, H226
[12] = read-out: Proliferation Inhibition of Cancer Cells EC50, HCT116

Structure (SMILES): COCCOc1ccc2[nH]c(C(=O)N3C[C@@H](CCl)c4c3cc(O)c3[nH]c(C(=O)N5CCOCC5)cc43)cc2c1 [Ia-01]
- EC50 ([1]; Homo sapiens): 0.007 nM
- EC50 [2, 6]: 0.014 nM

Structure (SMILES): CCOc1ccc2[nH]c(C(=O)N3C[C@@H](CCl)c4c3cc(O)c3[nH]c(C(=O)N5CCOCC5)cc43)cc2c1 [Ia-02]
- EC50 [3, 7]: 0.048 nM
- EC50 ([1]; Homo sapiens): 0.097 nM
- EC50 [2, 6]: 0.042 nM
- EC50 [4, 8]: 0.045 nM
- EC50 [5, 9]: 0.045 nM

Structure (SMILES): CCCOc1ccc2[nH]c(C(=O)N3C[C@@H](CCl)c4c3cc(O)c3[nH]c(C(=O)N5CCOCC5)cc43)cc2c1 [Ia-03]
- EC50 [3, 7]: 0.026 nM
- EC50 ([1]; Homo sapiens): 0.048 nM
- EC50 [2, 6]: 0.038 nM
- EC50 [4, 8]: 0.034 nM
- EC50 [5, 9]: 0.034 nM

Structure (SMILES): O=C(c1cc2c3c(cc(O)c2[nH]1)N(C(=O)c1cc2cc(OCC4CC4)ccc2[nH]1)C[C@H]3CCl)N1CCOCC1 [Ia-04]
- EC50 [3, 7]: 0.11 nM
- EC50 ([1]; Homo sapiens): 0.15 nM
- EC50 [2, 6]: 0.11 nM
- EC50 [4, 8]: 0.12 nM
- EC50 [5, 9]: 0.12 nM

Structure (SMILES): CC(C)COc1ccc2[nH]c(C(=O)N3C[C@@H](CCl)c4c3cc(O)c3[nH]c(C(=O)N5CCOCC5)cc43)cc2c1 [Ia-05]
- EC50 [3, 7]: 0.076 nM
- EC50 ([1]; Homo sapiens): 0.21 nM
- EC50 [2, 6]: 0.18 nM
- EC50 [4, 8]: 0.17 nM
- EC50 [5, 9]: 0.17 nM

Structure (SMILES): O=C(c1cc2c3c(cc(O)c2[nH]1)N(C(=O)c1cc2cc(OC4CCC4)ccc2[nH]1)C[C@H]3CCl)N1CCOCC1 [Ia-06]
- EC50 [3, 10]: 0.32 nM
- EC50 [1]: 0.56 nM
- EC50 [2, 11]: 0.47 nM
- EC50 ([4]; HCT116/VM46 cell line): 0.36 nM
- EC50 [5, 12]: 0.36 nM

Structure (SMILES): O=C(c1cc2c3c(cc(O)c2[nH]1)N(C(=O)c1cc2cc(OCCC4CC4)ccc2[nH]1)C[C@H]3CCl)N1CCOCC1 [Ia-07]
- EC50 [3, 7]: 0.41 nM
- EC50 ([1]; Homo sapiens): 0.81 nM
- EC50 [2, 6]: 0.72 nM
- EC50 [4, 8]: 0.67 nM
- EC50 [5, 9]: 0.67 nM

Structure (SMILES): O=C(c1cc2c3c(cc(O)c2[nH]1)N(C(=O)c1cc2cc(OCCO)ccc2[nH]1)C[C@H]3CCl)N1CCOCC1 [Ia-08]
- EC50 [3, 7]: 2.1 nM
- EC50 ([1]; Homo sapiens): 1.3 nM
- EC50 [2, 6]: 3.4 nM

Structure (SMILES): COCCCOc1ccc2[nH]c(C(=O)N3C[C@@H](CCl)c4c3cc(O)c3[nH]c(C(=O)N5CCOCC5)cc43)cc2c1 [Ia-09]
- EC50 [3, 7]: 0.025 nM
- EC50 ([1]; Homo sapiens): 0.016 nM
- EC50 [2, 6]: 0.055 nM

Structure (SMILES): O=C(c1cc2c3c(cc(O)c2[nH]1)N(C(=O)c1cc2cc(OCC4CCCCC4)ccc2[nH]1)C[C@H]3CCl)N1CCOCC1 [Ia-10]
- EC50 ([1]; Homo sapiens): 0.15 nM
- EC50 [2, 6]: 0.25 nM

Structure (SMILES): COc1ccc2[nH]c(C(=O)N3C[C@@H](CCl)c4c3cc(O)c3[nH]c(C(=O)N5CCOCC5)cc43)cc2c1 [Ia-11]
- EC50 [3, 7]: 0.52 nM
- EC50 ([1]; Homo sapiens): 1.2 nM
- EC50 [2, 6]: 1 nM
- EC50 [4, 8]: 0.92 nM
- EC50 [5, 9]: 0.58 nM

Structure (SMILES): O=C(c1cc2c3c(cc(O)c2[nH]1)N(C(=O)c1cc2cc(-c4ccccc4)ccc2[nH]1)C[C@H]3CCl)N1CCOCC1 [Ia-12]
- EC50 [3, 7]: 0.54 nM
- EC50 ([1]; Homo sapiens): 1.3 nM
- EC50 [2, 6]: 0.53 nM
- EC50 [4, 8]: 0.29 nM
- EC50 [5, 9]: 0.4 nM

Structure (SMILES): CC(C)Oc1ccc2[nH]c(C(=O)N3C[C@@H](CCl)c4c3cc(O)c3[nH]c(C(=O)N5CCOCC5)cc43)cc2c1 [Ia-13]
- EC50 [3, 7]: 0.12 nM
- EC50 ([1]; Homo sapiens): 0.48 nM
- EC50 [2, 6]: 0.32 nM
- EC50 [4, 8]: 0.24 nM
- EC50 [5, 9]: 0.18 nM

Structure (SMILES): O=C(c1cc2c3c(cc(O)c2[nH]1)N(C(=O)c1cc2cc(OC4CCOCC4)ccc2[nH]1)C[C@H]3CCl)N1CCOCC1 [Ia-14]
- EC50 [3, 7]: 0.1 nM
- EC50 ([1]; Homo sapiens): 0.36 nM
- EC50 [2, 6]: 0.43 nM
- EC50 [4, 8]: 0.77 nM
- EC50 [5, 9]: 0.26 nM

Structure (SMILES): O=C(c1cc2c3c(cc(O)c2[nH]1)N(C(=O)c1cc2cc(OC4CCCC4)ccc2[nH]1)C[C@H]3CCl)N1CCOCC1 [Ia-15]
- EC50 [3, 7]: 0.21 nM
- EC50 ([1]; Homo sapiens): 0.32 nM
- EC50 [2, 6]: 0.28 nM
- EC50 [4, 8]: 0.26 nM
- EC50 [5, 9]: 0.22 nM

Structure (SMILES): CN(C)CCOc1ccc2[nH]c(C(=O)N3C[C@@H](CCl)c4c3cc(O)c3[nH]c(C(=O)N5CCOCC5)cc43)cc2c1 [Ia-16]
- EC50 ([1]; Homo sapiens): 0.5 nM
- EC50 [2, 6]: 0.4 nM

Structure (SMILES): CNCCOc1ccc2[nH]c(C(=O)N3C[C@@H](CCl)c4c3cc(O)c3[nH]c(C(=O)N5CCOCC5)cc43)cc2c1 [Ia-17]
- EC50 [3, 10]: 18 nM
- EC50 [1]: 36 nM
- EC50 [2, 11]: 1.6 nM
- EC50 ([4]; HCT116/VM46 cell line): 25 nM
- EC50 [5, 12]: 19 nM

Structure (SMILES): NCCOc1ccc2[nH]c(C(=O)N3C[C@@H](CCl)c4c3cc(O)c3[nH]c(C(=O)N5CCOCC5)cc43)cc2c1 [Ia-18]
- EC50 [3, 7]: 12 nM
- EC50 ([1]; Homo sapiens): 48 nM
- EC50 [2, 6]: 32 nM
- EC50 [4, 8]: 19 nM
- EC50 [5, 9]: 25 nM
